# Experimental data: PubChem BioAssay (NCI)
#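 Dose response: 5 concentrations. Exposure: 48 h. Format: 96-well plates. Endpoint: linear interpolation; highest concentration if not reached. TGI: concentration producing complete growth inhibition.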
# What was measured:
# Assay in all cases: inhibition of tumour cell growth, NCI panel, 48 h
# [1] = test system: SN12C renal
# [2] = test system: HCC-2998 colon
# [3] = test system: ACHN renal
# [4] = test system: SF-268 CNS
# [5] = test system: BT-549 breast
# [6] = test system: SW-620 colon
# [7] = test system: NCI-H226 lung
# [8] = test system: SK-MEL-2 melanoma
# [9] = test system: UACC-62 melanoma
# [10] = test system: CAKI-1 renal
# [11] = test system: HT29 colon
# [12] = test system: NCI/ADR-RES ovarian
# [13] = test system: HCT-15 colon
# [14] = test system: SNB-75 CNS
# [15] = test system: HOP-92 NSCLC
# [16] = test system: A498 renal
# [17] = test system: HS 578T breast
# [18] = test system: OVCAR-4 ovarian
# [19] = test system: NCI-H23 lung
# [20] = test system: UO-31 renal
# [21] = test system: SNB-19 CNS
# [22] = test system: RXF 393 renal
# [23] = test system: IGROV1 ovarian
# [24] = test system: MCF7 breast
# [25] = test system: SR leukemia
# [26] = test system: KM12 colon
# [27] = test system: K-562 leukemia
# [28] = test system: SF-539 CNS
# [29] = test system: NCI-H522 lung
# [30] = test system: PC-3 prostate
# [31] = test system: SF-295 CNS
# [32] = test system: MDA-MB-435
# [33] = test system: EKVX NSCLC
# [34] = test system: TK-10 renal
# [35] = test system: MOLT-4 leukemia
# [36] = test system: UACC-257 melanoma
# [37] = test system: DU-145 prostate
# [38] = test system: HOP-62 NSCLC
# [39] = test system: 786-0 renal
# [40] = test system: MALME-3M melanoma
# [41] = test system: OVCAR-3 ovarian
# [42] = test system: A549 NSCLC
# [43] = test system: OVCAR-5 ovarian
# [44] = test system: RPMI-8226 leukemia
# [45] = test system: NCI-H460 lung
# [46] = test system: CCRF-CEM leukemia
# [47] = test system: SK-OV-3 ovarian
# [48] = test system: SK-MEL-28 melanoma
# [49] = test system: SK-MEL-5 melanoma
# [50] = test system: T-47D breast
# [51] = test system: U251 CNS
# [52] = test system: COLO 205 colon
# [53] = test system: M14 melanoma
compound,measurement,setting,value
COc1ccc(CN(CCc2c[nH]c3ccccc23)Cc2ccc(OC)cc2)cc1,TGI,[1],2.24 µM
same,TGI,[2],43.1 µM
same,TGI,[3],17.8 µM
same,TGI,[4],18 µM
same,TGI,[5],11.4 µM
same,TGI,[6],> 22 µM
same,TGI,[7],2.95 µM
same,TGI,[8],8.29 µM
same,TGI,[9],5.6 µM
same,TGI,[10],> 30.2 µM
same,TGI,[11],6.41 µM
same,TGI,[12],9.79 µM
same,TGI,[13],> 100 µM
same,TGI,[14],15.1 µM
same,TGI,[15],9.85 µM
same,TGI,[16],9.3 µM
same,TGI,[17],63 µM
same,TGI,[18],12.7 µM
same,TGI,[19],10.5 µM
same,TGI,[20],6.8 µM
same,TGI,[21],> 44.4 µM
same,TGI,[22],10.8 µM
same,TGI,[23],9.49 µM
same,TGI,[24],> 100 µM
same,TGI,[25],> 100 µM
same,TGI,[26],13.9 µM
same,TGI,[27],> 100 µM
same,TGI,[28],3.14 µM
same,TGI,[29],8.77 µM
same,TGI,[30],13 µM
same,TGI,[31],5.78 µM
same,TGI,[32],11.7 µM
same,TGI,[33],20.5 µM
same,TGI,[34],3.97 µM
same,TGI,[35],> 100 µM
same,TGI,[36],14.3 µM
same,TGI,[37],32.9 µM
same,TGI,[38],11.3 µM
same,TGI,[39],12.6 µM
same,TGI,[40],8.82 µM
same,TGI,[41],9.25 µM
same,TGI,[42],> 31.7 µM
same,TGI,[43],9.62 µM
same,TGI,[44],> 41.9 µM
same,TGI,[45],> 61.7 µM
same,TGI,[46],> 100 µM
same,TGI,[47],17.9 µM
same,TGI,[48],> 80.4 µM
same,TGI,[49],9.74 µM
O=P(O)(Cc1ccccc1)OCC1(O)OCC(O)C(O)C1O (centres undefined),TGI,[50],> 10 µM
same,TGI,[3],> 10 µM
same,TGI,[4],> 10 µM
same,TGI,[6],> 10 µM
same,TGI,[8],> 10 µM
same,TGI,[9],> 10 µM
same,TGI,[10],> 10 µM
same,TGI,[12],> 10 µM
same,TGI,[14],> 10 µM
same,TGI,[18],> 10 µM
same,TGI,[19],> 10 µM
same,TGI,[22],> 10 µM
same,TGI,[23],> 10 µM
same,TGI,[24],> 10 µM
same,TGI,[25],> 10 µM
same,TGI,[27],> 10 µM
same,TGI,[51],> 10 µM
same,TGI,[32],> 10 µM
same,TGI,[38],> 10 µM
same,TGI,[52],> 10 µM
same,TGI,[39],> 10 µM
same,TGI,[40],> 10 µM
same,TGI,[42],> 10 µM
same,TGI,[43],> 10 µM
same,TGI,[53],> 10 µM
same,TGI,[44],> 10 µM
same,TGI,[45],> 10 µM
same,TGI,[47],> 10 µM
same,TGI,[48],> 10 µM
same,TGI,[49],> 10 µM
